Where two headings read alike, the source gives them in different places.
Assay: Biodistribution in B16/F1 melanoma-bearing C57 mice
Format: in vivo
Settings: female, C57, mouse, iv, total radioactivity
Description: All the animal studies were conducted in compliance with Institutional Animal Care and Use Committee approval. The mice were housed five animals per cage in sterile micro-isolator cages in a temperature- and humidity-controlled room with a 12-h light/12-h dark schedule. […] C57 mice were subcutaneously inoculated on the right flank with 1×10^6 B16/F1 cells. The weight of tumors reached approximately 0.2 g 10 days post cell inoculation. […] Groups of 5 mice were sacrificed at 0.5, 2, 4 and 24 h post-injection, and tumors and organs of interest were harvested, weighed and counted. Blood values were taken as 6.5% of the whole-body weight. […] The mice were sacrificed at 2 h post-injection. The tumor and organs of interest were harvested, weighed and counted.
All animal studies were conducted in compliance with Institutional Animal Care and Use Committee approval. The pharmacokinetics of ^111In-DOTA-GGNle-CycMSHhex and ^111In-DOTA-GENle-CycMSHhex were determined in B16/F1 melanoma-bearing C57 female mice (Harlan, Indianapolis, Ind.). The C57 mice were subcutaneously inoculated with 1×10^6 B16/F1 cells on the right flank for each mouse to generate B16/F1 melanomas. Ten days post inoculation, the tumor weights reached approximately 0.2 g. Each melanoma-bearing mouse was injected with 0.037 MBq of ^111In-DOTA-GGNle-CycMSHhex or ^111In-DOTA-GENle-CycMSHhex via the tail vein. Groups of 5 mice were sacrificed at 0.5, 2, 4 and 24 h post-injection, and tumors and organs of interest were harvested, weighed and counted. Blood values were taken as 6.5% of the whole-body weight. The specificities of the tumor uptake of ^111In-DOTA-GGNle-CycMSHhex and ^111In-DOTA-GENle-CycMSHhex were determined by co-injecting 10 μg (6.07 nmol) of unlabeled NDP-MSH which is a linear α-MSH peptide analogue with picomolar MC1 receptor binding affinity.

`CCCC[C@H](NC(=O)CN1CCN(CC(=O)O)CCN(CC(=O)O)CCN(CC(=O)O)CC1)C(=O)N[C@H]1CC(=O)NCCCC[C@@H](C(N)=O)NC(=O)[C@H](Cc2c[nH]c3ccccc23)NC(=O)[C@H](CCCNC(=N)N)NC(=O)[C@@H](Cc2ccccc2)NC(=O)[C@H](Cc2c[nH]cn2)NC1=O` [^111In-DOTA-Nle-CycMSHhex, metal not drawn] showed a tissue uptake at 0.5 h (blood, 0.037 MBq, 0.5 h post-injection, read-out: Blood uptake) of 3.33 ± 0.35 %ID/g, a tissue uptake at 2 h (blood, 0.037 MBq, 2 h post-injection, read-out: Blood uptake) of 0.11 ± 0.07 %ID/g and a tissue uptake at 4 h (blood, 0.037 MBq, 4 h post-injection, read-out: Blood uptake) of 0.05 ± 0.02 %ID/g. The tissue uptake at 24 h (blood, 0.037 MBq, 24 h post-injection, read-out: Blood uptake) was 0.02 ± 0.01 %ID/g, the tissue uptake at 2 h (blood, 2 h post-injection, L-lysine co-injection, read-out: Blood uptake) was 0.92 ± 0.48 %ID/g and the tissue uptake at 2 h (blood, 2 h post-injection, NDP blockade, read-out: Blood uptake) was 0.07 ± 0.05 %ID/g. The tissue uptake at 0.5 h (bone, 0.037 MBq, 0.5 h post-injection, read-out: Bone uptake) was 1.34 ± 0.4 %ID/g, the tissue uptake at 2 h (bone, 0.037 MBq, 2 h post-injection, read-out: Bone uptake) was 0.18 ± 0.1 %ID/g and the tissue uptake at 4 h (bone, 0.037 MBq, 4 h post-injection, read-out: Bone uptake) was 0.22 ± 0.15 %ID/g. The tissue uptake at 24 h (bone, 0.037 MBq, 24 h post-injection, read-out: Bone uptake) was 0.16 ± 0.03 %ID/g, the tissue uptake at 2 h (bone, 2 h post-injection, L-lysine co-injection, read-out: Bone uptake) was 0.55 ± 0.14 %ID/g and the tissue uptake at 2 h (bone, 2 h post-injection, NDP blockade, read-out: Bone uptake) was 0.05 ± 0.04 %ID/g. It also gave a tissue uptake at 0.5 h (brain, 0.037 MBq, 0.5 h post-injection, read-out: Brain uptake) of 0.21 ± 0.07 %ID/g, a tissue uptake at 2 h (brain, 0.037 MBq, 2 h post-injection, read-out: Brain uptake) of 0.02 ± 0.01 %ID/g and a tissue uptake at 4 h (brain, 0.037 MBq, 4 h post-injection, read-out: Brain uptake) of 0.06 ± 0.03 %ID/g. It also gave a tissue uptake at 24 h (brain, 0.037 MBq, 24 h post-injection, read-out: Brain uptake) of 0.03 ± 0.01 %ID/g, a tissue uptake at 2 h (brain, 2 h post-injection, L-lysine co-injection, read-out: Brain uptake) of 0.04 ± 0.01 %ID/g and a tissue uptake at 2 h (brain, 2 h post-injection, NDP blockade, read-out: Brain uptake) of 0.01 ± 0.01 %ID/g. For the same molecule, the tissue uptake at 0.5 h (heart, 0.037 MBq, 0.5 h post-injection, read-out: Heart uptake) was 1.24 ± 0.15 %ID/g, the tissue uptake at 2 h (heart, 0.037 MBq, 2 h post-injection, read-out: Heart uptake) was 0.16 ± 0.1 %ID/g and the tissue uptake at 4 h (heart, 0.037 MBq, 4 h post-injection, read-out: Heart uptake) was 0.12 ± 0.03 %ID/g. For the same molecule, the tissue uptake at 24 h (heart, 0.037 MBq, 24 h post-injection, read-out: Heart uptake) was 0.07 ± 0.05 %ID/g, the tissue uptake at 2 h (heart, 2 h post-injection, L-lysine co-injection, read-out: Heart uptake) was 0.37 ± 0.02 %ID/g and the tissue uptake at 2 h (heart, 2 h post-injection, NDP blockade, read-out: Heart uptake) was 0.06 ± 0.02 %ID/g. For the same molecule, the tissue uptake dose at 0.5 h (intestines, 0.037 MBq, 0.5 h post-injection, read-out: Intestines, percent injected dose) was 2.16 ± 0.28 %ID, the tissue uptake dose at 2 h (intestines, 0.037 MBq, 2 h post-injection, read-out: Intestines, percent injected dose) was 1.4 ± 0.56 %ID and the tissue uptake dose at 4 h (intestines, 0.037 MBq, 4 h post-injection, read-out: Intestines, percent injected dose) was 3.03 ± 1.06 %ID. The tissue uptake dose at 24 h (intestines, 0.037 MBq, 24 h post-injection, read-out: Intestines, percent injected dose) was 1.41 ± 0.86 %ID, the tissue uptake dose at 2 h (intestines, 2 h post-injection, L-lysine co-injection, read-out: Intestines, percent injected dose) was 1.85 ± 0.73 %ID and the tissue uptake dose at 2 h (intestines, 2 h post-injection, NDP blockade, read-out: Intestines, percent injected dose) was 1.14 ± 0.47 %ID. It also gave a tissue uptake at 0.5 h (kidneys, 0.037 MBq, 0.5 h post-injection, read-out: Kidneys uptake) of 16.2 ± 4.32 %ID/g, a tissue uptake at 2 h (kidneys, 0.037 MBq, 2 h post-injection, read-out: Kidneys uptake) of 9.52 ± 0.44 %ID/g and a tissue uptake at 4 h (kidneys, 0.037 MBq, 4 h post-injection, read-out: Kidneys uptake) of 9.99 ± 1.39 %ID/g. The tissue uptake at 24 h (kidneys, 0.037 MBq, 24 h post-injection, read-out: Kidneys uptake) was 9.31 ± 0.91 %ID/g, the tissue uptake at 2 h (kidneys, 2 h post-injection, L-lysine co-injection, read-out: Kidneys uptake) was 6.66 ± 0.62 %ID/g and the tissue uptake at 2 h (kidneys, 2 h post-injection, NDP blockade, read-out: Kidneys uptake) was 11.6 ± 0.56 %ID/g. The tissue uptake at 0.5 h (liver, 0.037 MBq, 0.5 h post-injection, read-out: Liver uptake) was 2.75 ± 0.26 %ID/g, the tissue uptake at 2 h (liver, 0.037 MBq, 2 h post-injection, read-out: Liver uptake) was 1.46 ± 0.2 %ID/g and the tissue uptake at 4 h (liver, 0.037 MBq, 4 h post-injection, read-out: Liver uptake) was 1.72 ± 0.07 %ID/g. The tissue uptake at 24 h (liver, 0.037 MBq, 24 h post-injection, read-out: Liver uptake) was 1.89 ± 0.14 %ID/g, the tissue uptake at 2 h (liver, 2 h post-injection, L-lysine co-injection, read-out: Liver uptake) was 1.42 ± 0.3 %ID/g and the tissue uptake at 2 h (liver, 2 h post-injection, NDP blockade, read-out: Liver uptake) was 1.46 ± 0.08 %ID/g. It also gave a tissue uptake at 0.5 h (lung, 0.037 MBq, 0.5 h post-injection, read-out: Lung uptake) of 2.45 ± 0.83 %ID/g, a tissue uptake at 2 h (lung, 0.037 MBq, 2 h post-injection, read-out: Lung uptake) of 0.32 ± 0.1 %ID/g and a tissue uptake at 4 h (lung, 0.037 MBq, 4 h post-injection, read-out: Lung uptake) of 0.1 ± 0.05 %ID/g. It also gave a tissue uptake at 24 h (lung, 0.037 MBq, 24 h post-injection, read-out: Lung uptake) of 0.1 ± 0.03 %ID/g, a tissue uptake at 2 h (lung, 2 h post-injection, L-lysine co-injection, read-out: Lung uptake) of 0.75 ± 0.21 %ID/g and a tissue uptake at 2 h (lung, 2 h post-injection, NDP blockade, read-out: Lung uptake) of 0.3 ± 0.06 %ID/g. It also gave a tissue uptake at 0.5 h (muscle, 0.037 MBq, 0.5 h post-injection, read-out: Muscle uptake) of 0.6 ± 0.22 %ID/g, a tissue uptake at 2 h (muscle, 0.037 MBq, 2 h post-injection, read-out: Muscle uptake) of 0.15 ± 0.08 %ID/g and a tissue uptake at 4 h (muscle, 0.037 MBq, 4 h post-injection, read-out: Muscle uptake) of 0.1 ± 0.08 %ID/g. It also gave a tissue uptake at 24 h (muscle, 0.037 MBq, 24 h post-injection, read-out: Muscle uptake) of 0.03 ± 0.01 %ID/g, a tissue uptake at 2 h (muscle, 2 h post-injection, L-lysine co-injection, read-out: Muscle uptake) of 0.1 ± 0.08 %ID/g and a tissue uptake at 2 h (muscle, 2 h post-injection, NDP blockade, read-out: Muscle uptake) of 0.02 ± 0.01 %ID/g. It also gave a tissue uptake at 0.5 h (pancreas, 0.037 MBq, 0.5 h post-injection, read-out: Pancreas uptake) of 1.18 ± 0.38 %ID/g, a tissue uptake at 2 h (pancreas, 0.037 MBq, 2 h post-injection, read-out: Pancreas uptake) of 0.14 ± 0.02 %ID/g and a tissue uptake at 4 h (pancreas, 0.037 MBq, 4 h post-injection, read-out: Pancreas uptake) of 0.16 ± 0.02 %ID/g. It also gave a tissue uptake at 24 h (pancreas, 0.037 MBq, 24 h post-injection, read-out: Pancreas uptake) of 0.23 ± 0.08 %ID/g, a tissue uptake at 2 h (pancreas, 2 h post-injection, L-lysine co-injection, read-out: Pancreas uptake) of 0.21 ± 0.05 %ID/g and a tissue uptake at 2 h (pancreas, 2 h post-injection, NDP blockade, read-out: Pancreas uptake) of 0.12 ± 0.02 %ID/g. It also gave a tissue uptake at 0.5 h (skin, 0.037 MBq, 0.5 h post-injection, read-out: Skin uptake) of 4.11 ± 0.72 %ID/g, a tissue uptake at 2 h (skin, 0.037 MBq, 2 h post-injection, read-out: Skin uptake) of 0.66 ± 0.23 %ID/g and a tissue uptake at 4 h (skin, 0.037 MBq, 4 h post-injection, read-out: Skin uptake) of 0.53 ± 0.05 %ID/g. For the same molecule, the tissue uptake at 24 h (skin, 0.037 MBq, 24 h post-injection, read-out: Skin uptake) was 0.64 ± 0.16 %ID/g, the tissue uptake at 2 h (skin, 2 h post-injection, L-lysine co-injection, read-out: Skin uptake) was 1.02 ± 0.09 %ID/g and the tissue uptake at 2 h (skin, 2 h post-injection, NDP blockade, read-out: Skin uptake) was 0.29 ± 0.02 %ID/g. It also gave a tissue uptake at 0.5 h (spleen, 0.037 MBq, 0.5 h post-injection, read-out: Spleen uptake) of 1.09 ± 0.33 %ID/g, a tissue uptake at 2 h (spleen, 0.037 MBq, 2 h post-injection, read-out: Spleen uptake) of 0.41 ± 0.13 %ID/g and a tissue uptake at 4 h (spleen, 0.037 MBq, 4 h post-injection, read-out: Spleen uptake) of 0.47 ± 0.13 %ID/g. It also gave a tissue uptake at 24 h (spleen, 0.037 MBq, 24 h post-injection, read-out: Spleen uptake) of 0.32 ± 0.08 %ID/g, a tissue uptake at 2 h (spleen, 2 h post-injection, L-lysine co-injection, read-out: Spleen uptake) of 0.43 ± 0.07 %ID/g and a tissue uptake at 2 h (spleen, 2 h post-injection, NDP blockade, read-out: Spleen uptake) of 0.44 ± 0.02 %ID/g. For the same molecule, the tissue uptake at 0.5 h (stomach, 0.037 MBq, 0.5 h post-injection, read-out: Stomach uptake) was 3.2 ± 0.98 %ID/g, the tissue uptake at 2 h (stomach, 0.037 MBq, 2 h post-injection, read-out: Stomach uptake) was 1.25 ± 0.24 %ID/g and the tissue uptake at 4 h (stomach, 0.037 MBq, 4 h post-injection, read-out: Stomach uptake) was 1.49 ± 0.12 %ID/g. The tissue uptake at 24 h (stomach, 0.037 MBq, 24 h post-injection, read-out: Stomach uptake) was 1.34 ± 0.42 %ID/g, the tissue uptake at 2 h (stomach, 2 h post-injection, L-lysine co-injection, read-out: Stomach uptake) was 1.64 ± 0.78 %ID/g and the tissue uptake at 2 h (stomach, 2 h post-injection, NDP blockade, read-out: Stomach uptake) was 0.36 ± 0.14 %ID/g. The tissue uptake at 0.5 h (tumor, 0.037 MBq, 0.5 h post-injection, read-out: Tumor uptake) was 24.9 ± 4.58 %ID/g, the tissue uptake at 2 h (tumor, 0.037 MBq, 2 h post-injection, read-out: Tumor uptake) was 19.4 ± 1.65 %ID/g and the tissue uptake at 4 h (tumor, 0.037 MBq, 4 h post-injection, read-out: Tumor uptake) was 17 ± 2.54 %ID/g. For the same molecule, the tissue uptake at 24 h (tumor, 0.037 MBq, 24 h post-injection, read-out: Tumor uptake) was 10.5 ± 1.11 %ID/g, the tissue uptake at 2 h (tumor, 2 h post-injection, L-lysine co-injection, read-out: Tumor uptake) was 14.5 ± 3.25 %ID/g and the tissue uptake at 2 h (tumor, 2 h post-injection, NDP blockade, read-out: Tumor uptake) was 0.81 ± 0.03 %ID/g. For the same molecule, the dose excreted at 2 h (urine, 0.037 MBq, 2 h post-injection, read-out: Urine, percent injected dose) was 82.2 ± 5.83%.

— patent US9493537B2, “Compounds with reduced ring size for use in diagnosing and treating melanoma, including metastatic melanoma and methods related to same” (STC.UNM, priority 2009, dated 2016)
